Assays:
[1] = system: APESV; assay: Greenhouse test, post-emergence (PO) application, foliar effect; format: in vivo, Apera spica-venti; conditions: (A) 50, (B) 20, mixture 50 + 20 g of AS/ha, 3 weeks after application
Text: (§1) The 1:1 mixture of the two soil types was used specifically for cultivating small-seeded dicotyledonous weed since the standard field soil on its own tends to silt up, which may have an adverse effect on the emergence of small-seeded weeds. The resistances mentioned in the tables were confirmed beforehand in standard monitoring experiments. Nevertheless, the origins examined may have additional, hitherto unconfirmed resistances to various mechanisms of action.
(§2) The pots were then cultivated in a greenhouse (12-16 h light, temperature day 20-22° C., night 15-18° C.) until the time of application. The pots were treated at various BBCH stages of the seeds/plants on a laboratory track sprayer with spray liquors comprising the compositions according to the invention, mixtures of the prior art or the individual components. Application of the active compounds or active compound combinations and wetting agents formulated as WG, WP, EC or otherwise was carried out at the appropriate growth stages of the plants. The amount of water used for spray application was 100-600 l/ha. After the treatment, the plants were returned to the greenhouses and fertilized and watered as required. The pots were cultivated in a greenhouse (12-16 h light, temperature day 20-22° C., night 15-18° C.).
(§3) 3 weeks after the application, the foliar effect was evaluated on a scale of 0-100%:
(§4) 0%=no noticeable effect compared to untreated plants
(§5) 100%=full effect compared to untreated plants
(§6) The following abbreviations were used: • BBCH the BBCH code provides information about the morphological development stage of a plant. Officially, the abbreviation denotes the Biologische Bundesanstalt, Bundessortenamt and CHemische Industrie [Federal Biological Institute for Agriculture and Forestry, Federal Office for Crop Plant Varieties, Chemical Industry]. The range of BBCH 00-10 denotes the germination stages of the seeds until surface penetration. The range of BBCH 11-25 denotes the leaf development stages until stocking (corresponds to the number of tillers or side-shoots). • PE pre-emergence soil application; BBCH of the seeds/plants 00-10 • PO post-emergence application on the green parts of the plants; BBCH of the plants 11-25 • IU soil loamy silt—standard field soil • l/ha liters per hectare • S sensitive—the weed populations are sensitive to the active compounds tested • TSR target-site resistance. The weed populations comprise biotypes having a site-of-action-specific resistance, i.e. the binding site at the site of action is modified as a result of natural mutations in the gene sequence so that the active compounds are no longer able to bind, or bind in an unsatisfactory manner, and are therefore no longer able to act. • NTR non-target-site herbicide resistance; this is differentiated, inter alia, into EMR (Enhanced Metabolic Resistance) (the weed populations comprise biotypes having metabolic resistance, i.e. the plants are capable of metabolizing the active compounds more quickly via enzyme complexes, i.e. the active compounds are degraded more quickly in the plant), into reduced penetration into the plant, reduced translocation in the plant, accelerated excretion. […]

[2] = system: BRODI; assay: as above; format: in vivo, Bromus diformis; conditions: (A) 50, (B) 20, mixture 50 + 20 g of AS/ha, 3 weeks after application
Text: as §1, §2, §3, §4, §5, §6

[3] = system: AMATA; assay: as above; format: in vivo, Amaranthus rudis; conditions: (A) 50, (B) 20, mixture 50 + 20 g of AS/ha, 3 weeks after application
Text: as §1, §2, §3, §4, §5, §6

[4] = system: AMATA; assay: Greenhouse test, pre-emergence (PE) soil application; format: in vivo, Amaranthus rudis; set-up: key: % effect: 0 = no effect, 100 = full effect vs untreated
Text: as §1, §2, §3, §4, §5, §6

[5] = system: KCHSC; assay: Greenhouse test, post-emergence (PO) application, foliar effect; format: in vivo, Kochia scoparia; conditions: (A) 50, (B) 20, mixture 50 + 20 g of AS/ha, 3 weeks after application
Text: as §1, §2, §3, §4, §5, §6

[6] = system: BRODI; assay: Greenhouse test, pre-emergence (PE) soil application; format: in vivo, Bromus diformis; set-up: key: % effect: 0 = no effect, 100 = full effect vs untreated
Text: as §1, §2, §3, §4, §5, §6

[7] = system: BIDSU; assay: Greenhouse test, post-emergence (PO) application, foliar effect; format: in vivo, Bidens subalternans; conditions: BIDSU sensitive, (A) 50, (B) 20, mixture 50 + 20 g of AS/ha, 3 weeks after application
Text: as §1, §2, §3, §4, §5, §6

[8] = system: ERIBO; assay: as above; format: in vivo, Erigeron bonariensis; conditions: (A) 50, (B) 20, mixture 50 + 20 g of AS/ha, 3 weeks after application
Text: as §1, §2, §3, §4, §5, §6

[9] = system: EPHHL; assay: Greenhouse test, pre-emergence (PE) soil application; format: in vivo, Euphorbia heterophylla; set-up: key: % effect: 0 = no effect, 100 = full effect vs untreated
Text: as §1, §2, §3, §4, §5, §6

[10] = system: KCHSC; assay: as above; format: in vivo, Kochia scoparia; set-up: key: % effect: 0 = no effect, 100 = full effect vs untreated
Text: as §1, §2, §3, §4, §5, §6

[11] = system: TTTTT (all resistant and sensitive biotypes); assay: Greenhouse test, PO application, mean over all resistant and sensitive biotypes; format: in vivo; conditions: (A) 50, (B) 20, mixture 50 + 20 g of AS/ha; for TTTTT resistant mean (effect): mean of resistant biotypes (n = 17 or n = 15); for TTTTT sensitive mean (effect): mean of sensitive biotypes (n = 11)
Text: as §1, §2, §3, §4, §5, §6

[12] = system: ALOMY; assay: Greenhouse test, post-emergence (PO) application, foliar effect; format: in vivo, Alopecurus myosuroides; conditions: ALOMY sensitive, (A) 50, (B) 20, mixture 50 + 20 g of AS/ha, 3 weeks after application
Text: as §1, §2, §3, §4, §5, §6

[13] = system: CHEAL; assay: as above; format: in vivo, Chenopodium album; conditions: (A) 50, (B) 20, mixture 50 + 20 g of AS/ha, 3 weeks after application
Text: as §1, §2, §3, §4, §5, §6

[14] = system: LOLSS; assay: as above; format: in vivo, Lolium spp.; conditions: (A) 50, (B) 20, mixture 50 + 20 g of AS/ha, 3 weeks after application
Text: as §1, §2, §3, §4, §5, §6

[15] = system: ALOMY; assay: Greenhouse test, pre-emergence (PE) soil application; format: in vivo, Alopecurus myosuroides
Text: as §1, §2, §3, §4, §5, §6

[16] = system: BIDSU; assay: as above; format: in vivo, Bidens subalternans
Text: as §1, §2, §3, §4, §5, §6

[17] = APESV resistant - group B (TSR, NTR) and K1/3 (NA)
[18] = BRODI resistant - group A (TSR), B (NTR) and G (NTR)
[19] = AMATA resistant - group B (TSR), C1 (TSR)
[20] = group (B) compound alone, 20 g of AS/ha
[21] = KCHSC resistant - group B (TSR)
[22] = ERIBO resistant - group B (NA) and G (NTR)
[23] = CHEAL resistant - group B (TSR), C1 (NA) and G (NTR)
[24] = LOLSS resistant - group G (NTR)
[25] = LOLSS resistant group A (TSR, NTR), B (NTR) and C2 (NA)
[26] = LOLSS resistant group A (TSR, NTR), B (TSR, NTR) and C2 (NA)

Work on `COC(=O)c1csc(C)c1S(=O)(=O)NC(=O)n1nc(OC)n(C)c1=O` [(B5), thiencarbazone-methyl] yielded a foliar effect [1, 17] of 0%, a foliar effect ([1]; APESV sensitive) of 100% and a foliar effect [2, 18] of 50%. For the same compound, the foliar effect ([2]; BRODI sensitive) was 95%, the foliar effect [3, 19] was 40% and the foliar effect ([3]; AMATA sensitive) was 30%. For the same compound, the “effect on AMATA resistant - group B (TSR), C1 (TSR)” value (“effect on AMATA resistant - group B” for short) [4, 20] was 40, the “effect on AMATA sensitive” value [4, 20] was 60 and the foliar effect [5, 21] was 0%. The foliar effect ([5]; KCHSC sensitive) was 90%, the “effect on BRODI resistant - group A (TSR), B (NTR) and G (NTR)” value (“effect on BRODI resistant” below) [6, 20] was 70 and the “effect on BRODI sensitive” value [6, 20] was 70. It also gave a foliar effect [7] of 60%, a foliar effect [8, 22] of 60% and a foliar effect ([8]; ERIBO sensitive) of 70%. The “effect on EPHHL resistant - group B (TSR)” value [9, 20] was 0, the “effect on EPHHL resistant - group B (TSR) and G (NTR)” value (shortened to “effect on EPHHL resistant … (NTR)”) [9, 20] was 0 and the “effect on EPHHL sensitive” value [9, 20] was 30. For the same compound, the “effect on KCHSC resistant - group B (TSR)” value (shortened to “effect on KCHSC resistant”) [10, 20] was 0, the “effect on KCHSC sensitive” value [10, 20] was 85 and the “TTTTT resistant mean (effect)” value [11] was 25%. The “TTTTT sensitive mean (effect)” value [11] was 76%, the foliar effect [12] was 100% and the foliar effect [13, 23] was 70%. The foliar effect ([13]; CHEAL sensitive) was 70%, the foliar effect [14, 24] was 40% and the foliar effect [14, 25] was 50%. For the same compound, the foliar effect [14, 26] was 0%, the foliar effect ([14]; LOLSS sensitive) was 85% and the “effect on ALOMY sensitive” value [15, 20] was 100. For the same compound, the “effect on BIDSU sensitive” value [16, 20] was 75.
Compound `Cc1ccc2c(c1)[C@H](Nc1nc(N)nc(C(C)F)n1)[C@@H](C)C2` (stereo partly drawn) [(A), indaziflam] has a foliar effect [1, 17] of 60%, a foliar effect ([1]; APESV sensitive) of 65% and a foliar effect [2, 18] of 65%. For the same compound, the foliar effect ([2]; BRODI sensitive) was 70%, the foliar effect [3, 19] was 40% and the foliar effect ([3]; AMATA sensitive) was 50%. For the same compound, the “effect on AMATA resistant - group B” value ([4]; (A) alone, 12.5 g of AS/ha) was 70, the “effect on AMATA sensitive” value ([4]; (A) alone, 12.5 g of AS/ha) was 70 and the foliar effect [5, 21] was 30%. For the same compound, the foliar effect ([5]; KCHSC sensitive) was 30%, the “effect on BRODI resistant” value ([6]; (A) alone, 12.5 g of AS/ha) was 70 and the “effect on BRODI sensitive” value ([6]; (A) alone, 12.5 g of AS/ha) was 75. It also gave a foliar effect [7] of 40%, a foliar effect [8, 22] of 50% and a foliar effect ([8]; ERIBO sensitive) of 50%. For the same compound, the “effect on EPHHL resistant - group B (TSR)” value ([9]; (A) alone, 12.5 g of AS/ha) was 0, the “effect on EPHHL resistant … (NTR)” value ([9]; (A) alone, 12.5 g of AS/ha) was 0 and the “effect on EPHHL sensitive” value ([9]; (A) alone, 12.5 g of AS/ha) was 50. The “effect on KCHSC resistant” value ([10]; (A) alone, 12.5 g of AS/ha) was 40, the “effect on KCHSC sensitive” value ([10]; (A) alone, 12.5 g of AS/ha) was 40 and the “TTTTT resistant mean (effect)” value [11] was 53%. For the same compound, the “TTTTT sensitive mean (effect)” value [11] was 58%, the foliar effect [12] was 75% and the foliar effect [13, 23] was 70%. It also gave a foliar effect ([13]; CHEAL sensitive) of 70%, a foliar effect [14, 24] of 65% and a foliar effect [14, 25] of 60%. The foliar effect [14, 26] was 60%, the foliar effect ([14]; LOLSS sensitive) was 75% and the “effect on ALOMY sensitive” value ([15]; (A) alone, 12.5 g of AS/ha) was 85. For the same compound, the “effect on BIDSU sensitive” value ([16]; (A) alone, 12.5 g of AS/ha) was 50.
`CCOC(=O)c1ccccc1S(=O)(=O)NC(=O)Nc1nc(Cl)cc(OC)n1` [(B4), chlorimuron-ethyl] showed a foliar effect [1, 17] of 0%, a foliar effect ([1]; APESV sensitive) of 100% and a foliar effect [2, 18] of 70%. For the same compound, the foliar effect ([2]; BRODI sensitive) was 100%, the foliar effect [3, 19] was 60% and the foliar effect ([3]; AMATA sensitive) was 30%. The “effect on AMATA resistant - group B” value [4, 20] was 50, the “effect on AMATA sensitive” value [4, 20] was 60 and the foliar effect [5, 21] was 0%. For the same compound, the foliar effect ([5]; KCHSC sensitive) was 90%, the “effect on BRODI resistant” value [6, 20] was 80 and the “effect on BRODI sensitive” value [6, 20] was 95. For the same compound, the foliar effect [7] was 60%, the foliar effect [8, 22] was 60% and the foliar effect ([8]; ERIBO sensitive) was 80%. For the same compound, the “effect on EPHHL resistant - group B (TSR)” value [9, 20] was 0, the “effect on EPHHL resistant … (NTR)” value [9, 20] was 40 and the “effect on EPHHL sensitive” value [9, 20] was 60. For the same compound, the “effect on KCHSC resistant” value [10, 20] was 0, the “effect on KCHSC sensitive” value [10, 20] was 50 and the “TTTTT resistant mean (effect)” value [11] was 31%. For the same compound, the “TTTTT sensitive mean (effect)” value [11] was 72%, the foliar effect [12] was 100% and the foliar effect [13, 23] was 50%. It also gave a foliar effect ([13]; CHEAL sensitive) of 60%, a foliar effect [14, 24] of 50% and a foliar effect [14, 25] of 55%. The foliar effect [14, 26] was 0%, the foliar effect ([14]; LOLSS sensitive) was 35% and the “effect on ALOMY sensitive” value [15, 20] was 100. The “effect on BIDSU sensitive” value [16, 20] was 90.

From US9439430B2, “Method of controlling resistant harmful plants” (priority 2012, dated 2016)
